Reference: patent publication US20220193270A1, “METHOD FOR ENHANCING TUMOR GROWTH” (MINERVA BIOTECHNOLOGIES CORPORATION, priority 2013, published 2022)

Legend:
[1] = test system: Human HES-3 embryonic stem cells; experiment: Human embryonic stem cell culture with NME protein as only growth factor; format: cell-based; settings: serum-free minimal base media, agent as the only growth factor or cytokine
Description: Factors that are able to maintain stem cells in the naive state are also able to transform cells to a cancer-like or stem-like state and are also able to transform cancer cells to a cancer stem cell state or a more metastatic state. Herein, we have shown several examples of bacterial NME1 being able to function like human NME1 dimers, which are also able to function like NME7 or NME7-AB. However, the primary example that these factors function in a very similar way is their ability to promote the growth of stem cells, inhibit differentiation and maintain them in the naive state. […] Human HES-3 embryonic stem cells were cultured in a serum-free minimal base media with either HSP 593, human NME1 or NME7-dimers or human NME7-AB as the only growth factor or cytokine. […] Several examples have been presented here that indicate that contacting cells with an agent or agents that are able to revert stem cells from the primed state to the less mature naive state are also able to revert a wide variety of cell types to a less mature state: somatic cells to stem or progenitor cells or cancer cells to more metastatic state also called cancer stem cell state. Therefore, the invention is not meant to be limited to a specific cell type or a specific cancer cell type.

[2] = test system: DU145 MUC1-positive prostate cancer cells; experiment: RT-PCR of cancer stem cell markers in DU145 cells cultured with agent; format: cell-based, human; settings: after 9-10 passages; FIG. 11b
Experimental: (§1) Example 3: Agents that are able to maintain stem cells in the naïve state transform cancer cells into cancer stem cells wherein only a small number of cells are required for engraftment. Cancer cells were cultured according to standard practice. In the controls, the cancer cells were cultured in their normal media: RPMI for T47D breast cancer cells, DU145 and PC3 prostate cancer cells. However, the test agents, recombinant proteins human NME1 dimers, bacterial HSP593 NME1 dimers, human NME7-AB and 2i, were added to a serum-free minimal media to eliminate potential interference from the many growth factors and cytokines in serum.
(§2) To this serum-free minimal media, rhNME1 (aka NM23) was added to a final concentration of 8 nM, or bacterial HSP593 recombinant NME1 was added to a final concentration of 8 nM, or rhNME7-AB was added to a final concentration of 4 nM, or 2i inhibitors, PD0325901 and CHIR99021, which inhibit the MAP kinase pathway and GSK3, respectively, were added to a final concentration of 3 μM and 1 μM.
Example 3b: Prostate cancer cells were also cultured as described above with either human NME1 dimers, bacterial NME1 dimers, NME7-AB, or 2i inhibitors. […] Thus, the RT-PCR measurements of the cancer stem cell markers are lower than that of the T47D cells, which could be explained by it being the measure of transformed cells and non-transformed cells. In the case of breast cancer cells, we were able to isolate the fully transformed cancer stem cells by collecting the floating cells, but were not able to do so here. DU145 MUC1-positive prostate cancer cells were cultured in RPMI media as a control and in minimal media to which was added recombinant human NME1/NM23 dimers, bacterial HSP593 dimers, or human NME7-AB. […] There was about a 2-8-fold increase in OCT4, MUC1 and CDH1/E-cadherin. However, after serial passaging under these same culture conditions, the increases in expression of cancer stem cell markers became more pronounced. We reasoned that serial passaging allowed more time for cells to transform since we could not rapidly collect floating cells.

human fibroblasts = experiment: RT-PCR of stem/cancer markers and chromatin rearrangement factors in fibroblasts cultured with NME proteins; format: cell-based; settings: after 15-20 days in culture
Experimental: Agents that are able to maintain stem cells in the naive state are also able to transform somatic cells to a cancer or stem-like state. Human NME1 dimer or human NME7 are able to make somatic cells revert to a less mature state, expressing stem and cancer cell markers. Bacterial NME from HSP 593 was tested alongside the human homologs to determine if it could mimic their function by being able to revert somatic cells to a cancer-like state. Human fibroblasts were cultured in a serum-free minimal base media with either HSP 593, human NME1 dimers or human NME7-AB as the only growth factor or cytokine. […] Recalling that stem cells and metastatic cancer cells can grow anchorage-independently, we repeated the experiments but this time a rho kinase inhibitor was added to one set of cells to make the cells adhere to the surface. […] Photos of the experiment show the dramatic change in morphology as the fibroblasts revert when cultured in human or bacterial NME, FIGS. 52-59. The relative order of efficiency of reverting somatic cells to a less mature state was NME7>NME1 dimers >NME1 bacterial. […] However, Bacterial NME from HSP 593 apparently up-regulates expression of human NME7 and NME1.
Example 3d: In this example, fibroblast cells were cultured in the presence of recombinant human NME1/NM23 dimers, bacterial HSP593 NME1 dimers or NME7-AB. The fibroblasts were cultured in their normal media as a control, which is for 500 mL, 445 mL DMEM high glucose base media, 5 mL GlutaMAX and 50 mL of fetal bovine serum (FBS). After 15-20 days in culture with either NME1/NM23 dimers, bacterial HSP593 NME1 dimers or NME7-AB, the morphology of the cells completely changed so that they no longer were recognizable as fibroblasts. […] Here, ‘minus ROCi’ refers to cells that became non-adherent and floated off the surface.

[3] = test system: PC3 MUC1-negative prostate cancer cells; experiment: RT-PCR of stem cell markers in PC3 cells cultured with agent; format: cell-based, human
Experimental: as §1, §2
PC3 MUCl-negative prostate cancer cells were also tested for their ability to transform into cancer stem cells when cultured in agents that are able to maintain stem cells in the naïve state. PC3 cells were cultured as described above with either human NME1 dimers, bacterial NME1 dimers or NME7-AB. […] Thus, the RT-PCR measurements of the cancer stem cell markers may be lower because measurements will be the average of transformed cells and non-transformed cells.

[4] = test system: MUC1-positive T47D breast cancer cells; experiment: RT-PCR of cancer stem cell markers and chromatin rearrangement factors in T47D cells cultured in serum-free minimal media with agent; format: cell-based, human
Experimental: as §1
Serum-free Minimal Media 500 mL includes the following components: 394 mL DMEM/F12, GlutaMAX; 100 mL Knockout™ Serum Replacement; 5.0 mL 100×MEM Non-essential Amino Acid Solution; 0.9 mL P-mercaptoethanol, 55 mM stock.
as §2
When a rho kinase inhibitor, “Ri” or “ROCi”, was added it was Y27632 from Stemgent (Cambridge, Mass.), added immediately before use to a final concentration of 10 uM.
Example 3a: Breast cancer T47D cells were cultured either in the traditional RPMI growth media or in a minimal stem cell media to which was added either human NME1 dimers, also known as NM23-H1, bacterial HSP593 NME1 dimers, human NME7-AB, or kinase inhibitors known as ‘2i’. What these agents have in common is that they are each able to promote the growth of stem cells in the naive state or are able to revert primed state stem cells to the less mature naive state. We observed that some of the T47D cancer cells cultured in any of these agents became non-adherent. These ‘floaters’ were also morphologically different. The addition of a rho kinase inhibitor, called ‘Ri’ or ‘ROCP here caused most of the cells to remain attached to the surface. […] When a rho kinase inhibitor is added, all the cells remain attached but the RT-PCR measurements indicate that the resultant measure is of a mixture of the cells that were transformed and those that were not or were not yet.
Example 3c: In this example, the effect of ‘2i’ inhibitors on cancer cells was tested. Recall that 2i is the name given to 2 small molecules, […] that inhibit the MAP kinase pathway and GSK3 respectively. […] In this experiment, we cultured MUCl-positive T47D breast cancer cells in minimal media to which was added either 2i or NME7-AB.

## NME1 dimers: recombinant human NM23, also called NME1, dimers that bear the 5120G mutation that stabilizes dimers
[1]
  support of human stem cell growth: fully supported human stem cell growth
[2]
  expression of NANOG and OCT4: significant increases
  increase in the expression of CDH1/E-cadherin: 6 fold
Human fibroblasts; FIG. 15
  expression of stem cell marker genes OCT4 and NANOG: greatly increased expression
Human fibroblasts; FIG. 16
  expression of BRD4, JMJD6, MBD3 and CHD4: decreased expression
[3]; after passage in agent, FIG. 12a
  expression of stem cell markers SOX2, OCT4 and NANOG: modest increases
[3]; serial passaging in the media, FIG. 12b
  expression of cancer stem cell or stem cell markers: decreased
[4]; FIG. 7
  expression of CDH1 (E-cadherin), MUC1 and NANOG: increases
  expression of CXCR4, SOX2 and OCT4: dramatic increases
  expression of stem cell markers KLF2 and KLF4: modest increases
[4]; cancer cells cultured in agent, FIG. 13, FIG. 14
  expression of MBD3, CHD4, BRD4 and JMJD6: naturally suppressed
